Results on one compound are retold here after publication PMC5218480 (PLoS ONE, 2017).

This test deals with MV-4-11 cells. As to the kind of experiment: Gene expression microarray analysis (Affymetrix PrimeView) and GSEA. In kind it is cell-based, human. More on the design: RFU PODN (11730768_x_at) / Fold change /veh PODN (11730768_x_at) / RFU LINC00158 (11744669_a_at) / Fold change /veh LINC00158 (11744669_a_at) / RFU DUSP10 (11751237_a_at) / Fold change /veh DUSP10 (11751237_a_at) / RFU ID3 (11757404_x_at) / Fold change /veh ID3 (11757404_x_at) / RFU PLEKHG5 (11737974_s_at) / Fold change /veh PLEKHG5 (11737974_s_at) / RFU LRRC4B (11730491_at) / Fold change /veh LRRC4B (11730491_at) / RFU GIMAP4 (11747438_a_at) / Fold change /veh GIMAP4 (11747438_a_at) / RFU KRT8 (11758183_x_at) / Fold change /veh KRT8 (11758183_x_at) / RFU CNN1 (11734310_a_at) / Fold change /veh CNN1 (11734310_a_at) / RFU VPS37D (11726825_at) / Fold change /veh VPS37D (11726825_at) / RFU C10orf10 (11716522_x_at) / Fold change /veh C10orf10 (11716522_x_at) / RFU KIR2DL2 /// KIR2DL4 /// KIR2DL5A /// KIR2DL5B /// KIR2DS1 /// KIR2DS2 /// KIR2DS3 /// KIR2DS4 /// KIR3DL3 /// KIR3DL3 /// KIR3DS1 (11738374_at) / Fold change /veh KIR2DL2 /// KIR2DL4 /// KIR2DL5A /// KIR2DL5B /// KIR2DS1 /// KIR2DS2 /// KIR2DS3 /// KIR2DS4 /// KIR3DL3 /// KIR3DL3 /// KIR3DS1 (11738374_at) / RFU C1QL1 (11718748_at) / Fold change /veh C1QL1 (11718748_at) / RFU TMPRSS4 (11747572_a_at) / Fold change /veh TMPRSS4 (11747572_a_at) / RFU HAMP (11756126_x_at) / Fold change /veh HAMP (11756126_x_at) / RFU RNFT2 (11725882_a_at) / Fold change /veh RNFT2 (11725882_a_at) / RFU NR4A2 (11747474_a_at) / Fold change /veh NR4A2 (11747474_a_at) / RFU ABCC12 (11746883_a_at) / Fold change /veh ABCC12 (11746883_a_at) / RFU TMEM136 (11760407_x_at) / Fold change /veh TMEM136 (11760407_x_at) / RFU CLDN22 /// WWC2 (11732394_at) / Fold change /veh CLDN22 /// WWC2 (11732394_at) / RFU HLA-DPB1 (11760878_x_at) / Fold change /veh HLA-DPB1 (11760878_x_at) / RFU SPINT1 (11716480_a_at) / Fold change /veh SPINT1 (11716480_a_at) / RFU GAP43 (11754022_s_at) / Fold change /veh GAP43 (11754022_s_at) / RFU A4GNT (11735810_at) / Fold change /veh A4GNT (11735810_at) / RFU PRB3 (11715151_x_at) / Fold change /veh PRB3 (11715151_x_at) / RFU TUBB4B (11761932_at) / Fold change /veh TUBB4B (11761932_at) / RFU CAPN14 (11732068_a_at) / Fold change /veh CAPN14 (11732068_a_at) / RFU TMCC2 (11721928_a_at) / Fold change /veh TMCC2 (11721928_a_at) / RFU IRGQ (11745062_a_at) / Fold change /veh IRGQ (11745062_a_at) / RFU FAM174B (11720279_a_at) / Fold change /veh FAM174B (11720279_a_at) / RFU TMPRSS4 (11748680_a_at) / Fold change /veh TMPRSS4 (11748680_a_at) / RFU FAM212B (11763350_a_at) / Fold change /veh FAM212B (11763350_a_at) / RFU PLEKHG5 (11743358_a_at) / Fold change /veh PLEKHG5 (11743358_a_at) / RFU ZSCAN30 (11745921_a_at) / Fold change /veh ZSCAN30 (11745921_a_at) / RFU CMKLR1 (11741424_a_at) / Fold change /veh CMKLR1 (11741424_a_at) / RFU LOC101060620 /// MAPK8IP1 (11723275_at) / Fold change /veh LOC101060620 /// MAPK8IP1 (11723275_at) / RFU SPTSSB (11747773_x_at) / Fold change /veh SPTSSB (11747773_x_at) / RFU PRSS12 (11739890_at) / Fold change /veh PRSS12 (11739890_at) / RFU BIN1 (11741810_x_at) / Fold change /veh BIN1 (11741810_x_at) / RFU WNT11 (11732464_a_at) / Fold change /veh WNT11 (11732464_a_at) / RFU C10orf10 (11716521_a_at) / Fold change /veh C10orf10 (11716521_a_at) / RFU C5orf56 (11738089_at) / Fold change /veh C5orf56 (11738089_at) / RFU CYB561 (11721691_x_at) / Fold change /veh CYB561 (11721691_x_at) / RFU ANKRD19P (11752326_a_at) / Fold change /veh ANKRD19P (11752326_a_at) / RFU OR2T12 /// OR2T33 /// OR2T8 (11738714_s_at) / Fold change /veh OR2T12 /// OR2T33 /// OR2T8 (11738714_s_at) / RFU VCAN (11748164_a_at) / Fold change /veh VCAN (11748164_a_at) / RFU JSRP1 (11732532_at) / Fold change /veh JSRP1 (11732532_at) / RFU KRTAP10-11 (11738290_x_at) / Fold change /veh KRTAP10-11 (11738290_x_at) / RFU MYO3A (11730013_a_at) / Fold change /veh MYO3A (11730013_a_at) / RFU EBF3 (11725865_a_at) / Fold change /veh EBF3 (11725865_a_at) / RFU CAMK2N1 (11719241_x_at) / Fold change /veh CAMK2N1 (11719241_x_at) / RFU C5orf56 (11738088_a_at) / Fold change /veh C5orf56 (11738088_a_at) / RFU OLFML3 (11715873_a_at) / Fold change /veh OLFML3 (11715873_a_at) / RFU LOC100653217 /// NTM (11731650_a_at) / Fold change /veh LOC100653217 /// NTM (11731650_a_at) / RFU MAPK11 (11762145_a_at) / Fold change /veh MAPK11 (11762145_a_at) / RFU FIZ1 (11724087_x_at) / Fold change /veh FIZ1 (11724087_x_at) / RFU OASL (11726364_x_at) / Fold change /veh OASL (11726364_x_at) / RFU SOX15 (11748057_x_at) / Fold change /veh SOX15 (11748057_x_at) / RFU CD79A (11719716_a_at) / Fold change /veh CD79A (11719716_a_at) / RFU HIST1H1D (11736915_at) / Fold change /veh HIST1H1D (11736915_at) / RFU CASKIN2 (11723855_a_at) / Fold change /veh CASKIN2 (11723855_a_at) / RFU LOC730098 (11760151_x_at) / Fold change /veh LOC730098 (11760151_x_at) / RFU OR4N2 (11742367_at) / Fold change /veh OR4N2 (11742367_at) / RFU PRRT2 (11749266_a_at) / Fold change /veh PRRT2 (11749266_a_at) / RFU SNX32 (11753110_a_at) / Fold change /veh SNX32 (11753110_a_at) / RFU CDHR5 (11726645_a_at) / Fold change /veh CDHR5 (11726645_a_at) / RFU RCAN1 (11760418_a_at) / Fold change /veh RCAN1 (11760418_a_at) / RFU FAM167A (11723789_a_at) / Fold change /veh FAM167A (11723789_a_at) / RFU FAM26E (11764081_at) / Fold change /veh FAM26E (11764081_at) / RFU ISYNA1 (11749810_s_at) / Fold change /veh ISYNA1 (11749810_s_at) / RFU ACY1 (11761880_at) / Fold change /veh ACY1 (11761880_at) / RFU 11764098_at / Fold change /veh 11764098_at / RFU SAMD14 (11745864_x_at) / Fold change /veh SAMD14 (11745864_x_at) / RFU NPB (11741838_a_at) / Fold change /veh NPB (11741838_a_at) / RFU TMPRSS6 (11731388_a_at) / Fold change /veh TMPRSS6 (11731388_a_at) / RFU KRTAP10-2 (11738614_at) / Fold change /veh KRTAP10-2 (11738614_at) / RFU ARHGAP8 /// PRR5-ARHGAP8 (11727945_x_at) / Fold change /veh ARHGAP8 /// PRR5-ARHGAP8 (11727945_x_at) / RFU KRTAP5-7 /// NADSYN1 (11734609_at) / Fold change /veh KRTAP5-7 /// NADSYN1 (11734609_at) / RFU RASL12 (11751679_a_at) / Fold change /veh RASL12 (11751679_a_at) / RFU CDKN2B (11736163_a_at) / Fold change /veh CDKN2B (11736163_a_at) / RFU PRF1 (11729649_at) / Fold change /veh PRF1 (11729649_at) / RFU, ZNF638 /// ZNF638-IT1 / Fold change vs veh, ZNF638 /// ZNF638-IT1 / RFU, PANK3 / Fold change vs veh, PANK3 / RFU, SH3YL1 / Fold change vs veh, SH3YL1 / RFU, ZEB2 / Fold change vs veh, ZEB2 / RFU, NRIP1 / Fold change vs veh, NRIP1 / RFU, PTTG1IP / Fold change vs veh, PTTG1IP / RFU, CAPN2 / Fold change vs veh, CAPN2 / RFU, MED14 / Fold change vs veh, MED14 / RFU, SNORA58 / Fold change vs veh, SNORA58 / RFU, C1orf63 / Fold change vs veh, C1orf63 / RFU, LRRFIP1 / Fold change vs veh, LRRFIP1 / RFU, NDUFAF7 / Fold change vs veh, NDUFAF7 / RFU, SLC12A2 / Fold change vs veh, SLC12A2 / RFU, IBTK / Fold change vs veh, IBTK / RFU, ESF1 / Fold change vs veh, ESF1 / Fold change vs veh, TMEM50B / RFU, TAOK1 / Fold change vs veh, TAOK1 / RFU, ACBD3 / Fold change vs veh, ACBD3 / RFU, TMA16 / Fold change vs veh, TMA16 / RFU, RWDD3 / Fold change vs veh, RWDD3 / RFU, BCAT1 / Fold change vs veh, BCAT1 / RFU, EDEM3 / Fold change vs veh, EDEM3 / RFU, TMEM33 / Fold change vs veh, TMEM33 / RFU, WDR75 / Fold change vs veh, WDR75 / RFU, AHCTF1 / Fold change vs veh, AHCTF1 / RFU, TFRC / Fold change vs veh, TFRC / RFU, ZDHHC17 / Fold change vs veh, ZDHHC17 / RFU, NOM1 / Fold change vs veh, NOM1 / RFU, ARL8B / Fold change vs veh, ARL8B / RFU, ZBTB11 / Fold change vs veh, ZBTB11 / RFU, TAMM41 / Fold change vs veh, TAMM41 / RFU, KIAA1704 /// LOC100996395 / Fold change vs veh, KIAA1704 /// LOC100996395 / RFU, ING1 / Fold change vs veh, ING1 / RFU, TRMT61B / Fold change vs veh, TRMT61B / RFU, FUBP3 / Fold change vs veh, FUBP3 / RFU, TP53 / Fold change vs veh, TP53 / RFU, TNKS2 / Fold change vs veh, TNKS2 / RFU, ZFP14 / Fold change vs veh, ZFP14 / RFU, ACTR2 / Fold change vs veh, ACTR2 / RFU, PPP3R1 / Fold change vs veh, PPP3R1 / RFU, PIK3R1 / Fold change vs veh, PIK3R1 / RFU, HNRNPA1 / Fold change vs veh, HNRNPA1 / RFU, RNF170 / Fold change vs veh, RNF170 / RFU, ZNF28 / Fold change vs veh, ZNF28 / RFU, RNGTT / Fold change vs veh, RNGTT / RFU, OGT / Fold change vs veh, OGT / RFU, BRD1 / Fold change vs veh, BRD1 / RFU, MARS / Fold change vs veh, MARS / RFU, ZNF655 / Fold change vs veh, ZNF655 / RFU, FAHD1 / Fold change vs veh, FAHD1 / RFU, BDP1 / Fold change vs veh, BDP1 / RFU, LRRCC1 / Fold change vs veh, LRRCC1 / RFU, ARID1A / Fold change vs veh, ARID1A / RFU, ZNF146 / Fold change vs veh, ZNF146 / RFU, ZNF330 / Fold change vs veh, ZNF330 / RFU, GPN3 / Fold change vs veh, GPN3 / RFU, C9orf123 / Fold change vs veh, C9orf123 / RFU, N4BP2L2 / Fold change vs veh, N4BP2L2 / RFU, ARFIP1 / Fold change vs veh, ARFIP1 / RFU, FAM179B / Fold change vs veh, FAM179B / RFU, BCL10 / Fold change vs veh, BCL10 / RFU, UHRF1BP1L / Fold change vs veh, UHRF1BP1L / RFU, BET1 / Fold change vs veh, BET1 / RFU, CNOT2 / Fold change vs veh, CNOT2 / RFU, ZNF268 / Fold change vs veh, ZNF268 / Fold change vs veh, ZNF507 / RFU, DGCR2 / Fold change vs veh, DGCR2 / RFU, WDSUB1 / Fold change vs veh, WDSUB1 / Fold change vs veh, HSP90B1 /// MIR3652 / RFU, ADSS / Fold change vs veh, ADSS / RFU, GK / Fold change vs veh, GK / RFU, ZNF148 / Fold change vs veh, ZNF148 / RFU, TAF9 / Fold change vs veh, TAF9 / RFU, SLC1A5 / Fold change vs veh, SLC1A5 / RFU, SLMO2 / Fold change vs veh, SLMO2 / RFU, ABCC4 / Fold change vs veh, ABCC4 / RFU, LOC101060439 /// RAP1B / Fold change vs veh, LOC101060439 /// RAP1B / RFU, RFX7 / Fold change vs veh, RFX7 / RFU, GTPBP10 / Fold change vs veh, GTPBP10 / RFU, CNEP1R1 / Fold change vs veh, CNEP1R1 / RFU, BIVM-ERCC5 /// ERCC5 / Fold change vs veh, BIVM-ERCC5 /// ERCC5 / RFU, ILF3 / Fold change vs veh, ILF3 / RFU 11762660_at / Fold change /veh 11762660_at / RFU VCAN (11757783_s_at) / Fold change /veh VCAN (11757783_s_at) / RFU DDX43 (11728927_at) / Fold change /veh DDX43 (11728927_at) / RFU KRT8 (11758188_x_at) / Fold change /veh KRT8 (11758188_x_at) / RFU NKD1 (11759106_at) / Fold change /veh NKD1 (11759106_at) / RFU SRD5A1 (11742802_a_at) / Fold change /veh SRD5A1 (11742802_a_at) / RFU TPSAB1 /// TPSB2 (11721975_s_at) / Fold change /veh TPSAB1 /// TPSB2 (11721975_s_at) / RFU GSTM3 (11746129_a_at) / Fold change /veh GSTM3 (11746129_a_at) / RFU IL23R (11737362_x_at) / Fold change /veh IL23R (11737362_x_at) / RFU TMEM51 (11727254_a_at) / Fold change /veh TMEM51 (11727254_a_at) / RFU PIWIL2 (11732686_x_at) / Fold change /veh PIWIL2 (11732686_x_at) / RFU ORM1 (11744905_x_at) / Fold change /veh ORM1 (11744905_x_at) / RFU CCDC152 (11743942_at) / Fold change /veh CCDC152 (11743942_at) / RFU ECM1 (11717891_a_at) / Fold change /veh ECM1 (11717891_a_at) / RFU IL23R (11748794_a_at) / Fold change /veh IL23R (11748794_a_at) / RFU TNFAIP8L3 (11732012_x_at) / Fold change /veh TNFAIP8L3 (11732012_x_at) / RFU MBOAT4 (11741988_at) / Fold change /veh MBOAT4 (11741988_at) / RFU 11764193_at / Fold change /veh 11764193_at / RFU TMEM53 (11763286_at) / Fold change /veh TMEM53 (11763286_at) / RFU MAGEB2 (11727129_at) / Fold change /veh MAGEB2 (11727129_at) / RFU TMEM200A (11744735_a_at) / Fold change /veh TMEM200A (11744735_a_at) / RFU CCDC152 (11751479_a_at) / Fold change /veh CCDC152 (11751479_a_at) / RFU FAM211A (11726209_a_at) / Fold change /veh FAM211A (11726209_a_at) / RFU RGS16 (11746705_a_at) / Fold change /veh RGS16 (11746705_a_at) / RFU VCAN (11755009_s_at) / Fold change /veh VCAN (11755009_s_at) / RFU RHOB (11743442_s_at) / Fold change /veh RHOB (11743442_s_at) / RFU RGS16 (11720943_a_at) / Fold change /veh RGS16 (11720943_a_at) / RFU RGS16 (11720944_at) / Fold change /veh RGS16 (11720944_at) / RFU, VPS4B / Fold change vs veh, VPS4B / RFU, CREB1 / Fold change vs veh, CREB1 / RFU, DNAJC13 / Fold change vs veh, DNAJC13 / RFU, GNAQ / Fold change vs veh, GNAQ / RFU, CDK5R1 / Fold change vs veh, CDK5R1 / RFU, ZRANB3 / Fold change vs veh, ZRANB3 / RFU, CUL4A / Fold change vs veh, CUL4A / RFU, CCNY / Fold change vs veh, CCNY / RFU, UFL1 / Fold change vs veh, UFL1 / RFU, COG3 / Fold change vs veh, COG3 / RFU, DIAPH2 / Fold change vs veh, DIAPH2 / RFU, SKA2 / Fold change vs veh, SKA2 / RFU, AFF3 / Fold change vs veh, AFF3 / RFU, LMF1 / Fold change vs veh, LMF1 / RFU, IPO11 / Fold change vs veh, IPO11 / RFU, DFFB / Fold change vs veh, DFFB / RFU, FOXP1 / Fold change vs veh, FOXP1 / RFU, CARD8 / Fold change vs veh, CARD8 / RFU, STRN3 / Fold change vs veh, STRN3 / RFU, ADK / Fold change vs veh, ADK / RFU, RASSF2 / Fold change vs veh, RASSF2 / RFU, WIPF1 / Fold change vs veh, WIPF1 / RFU, LARP1B / Fold change vs veh, LARP1B / RFU, RASA1 / Fold change vs veh, RASA1 / RFU, RB1 / Fold change vs veh, RB1 / RFU, PPFIA1 / Fold change vs veh, PPFIA1 / RFU, MAT2A / Fold change vs veh, MAT2A / RFU, CCT5 / Fold change vs veh, CCT5 / RFU, WDR92 / Fold change vs veh, WDR92 / RFU, CUX1 / Fold change vs veh, CUX1 / RFU, TTC7A / Fold change vs veh, TTC7A / RFU, TMEM135 / Fold change vs veh, TMEM135 / RFU, DEPTOR / Fold change vs veh, DEPTOR / RFU, CPM / Fold change vs veh, CPM / RFU, DNAJB6 / Fold change vs veh, DNAJB6 / RFU, CACNA2D3 / Fold change vs veh, CACNA2D3 / RFU, DTX4 / Fold change vs veh, DTX4 / RFU, TFCP2 / Fold change vs veh, TFCP2 / RFU, GMCL1 /// GMCL1P1 / Fold change vs veh, GMCL1 /// GMCL1P1 / RFU, AEBP2 / Fold change vs veh, AEBP2 / RFU, SNHG1 /// SNORD22 /// SNORD25 /// SNORD26 /// SNORD27 /// SNORD28 /// SNORD29 /// SNORD31 / Fold change vs veh, SNHG1 /// SNORD22 /// SNORD25 /// SNORD26 /// SNORD27 /// SNORD28 /// SNORD29 /// SNORD31 / Fold change (Aza/veh), C12orf56 (ProbeSet 11735607_a_at) / Fold change (ACY-1035/veh), C12orf56 (ProbeSet 11735607_a_at) / Fold change (Aza/veh), FGFR1OP (ProbeSet 11751329_s_at) / Fold change (ACY-1035/veh), FGFR1OP (ProbeSet 11751329_s_at) / Fold change (Aza/veh), VPS36 (ProbeSet 11739960_a_at) / Fold change (ACY-1035/veh), VPS36 (ProbeSet 11739960_a_at) / RFU SYPL1 (11715823_x_at) / Fold change /veh SYPL1 (11715823_x_at) / RFU IGFBP7 (11715501_s_at) / Fold change /veh IGFBP7 (11715501_s_at) / RFU REEP3 (11722064_at) / Fold change /veh REEP3 (11722064_at) / RFU IGLL1 (11728026_x_at) / Fold change /veh IGLL1 (11728026_x_at): dose or concentration left out as unconfirmed. The conditions noted are these: ProbeSet 11734782_x_at; LIST D.

Structures are written as SMILES.

Turning to `Nc1ncn([C@@H]2O[C@H](CO)[C@@H](O)[C@H]2O)c(=O)n1` [azacitidine], the “Fold change vs veh, WDR92” value amounted to 0.69.
